Results published in patent US20240245691A1 (Sitryx Therapeutics Limited, priority 2021, published 2024).
Where two headings read alike, the source gives them in different places.

Key:
IL-6 = test: THP-1 AlphaLISA IL-6 cytokine assay (differentiated THP-1 cells); assay type: cell-based; conditions: Homo sapiens
Summary of the method: (§1)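 PMA-differentiated THP-1 cells were preincubated 30 min with compound, stimulated with LPS for 24 h, then nigericin for 1 h, all at 37 °C. Supernatant IL-1β and IL-6 were quantified by AlphaLISA. % inhibition is normalised to +LPS and −LPS controls per cytokine.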

[1] = Hepatocyte stability assay, mouse; assay type: in vitro ADME; conditions: mouse, hepatocytes, T½
Summary of the method: (§2)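 Cryopreserved hepatocytes at 0.5×10^6 cells/mL in Leibovitz buffer, 37 °C, with 10 μM compound (0.1% DMSO), duplicate. Samples at 0-60 min, acetonitrile quench, LC-MS/MS; intrinsic clearance and half-life from ln % remaining versus time, with buffer-only incubations as control.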

[2] = test system: cryo-preserved hepatocytes; test: Hepatocyte stability assay, mouse; assay type: in vitro ADME; conditions: mouse, hepatocytes
Summary of the method: as §2

IL-1β = test: THP-1 AlphaLISA IL-1β cytokine assay (differentiated THP-1 cells); assay type: cell-based; conditions: Homo sapiens
Summary of the method: as §1

[3] = test system: NRF2 (nuclear factor erythroid 2-related factor 2); test: NRF2 +/-GSH activation assay (DiscoverX PathHunter NRF2 translocation kit, U2OS cells); assay type: cell-based; conditions: Homo sapiens
[4] = Hepatocyte stability assay, human; assay type: in vitro ADME; conditions: human, hepatocytes, T½
Summary of the method: as §2

[5] = test system: cryo-preserved hepatocytes; test: Hepatocyte stability assay, human; assay type: in vitro ADME; conditions: human, hepatocytes
Summary of the method: as §2

plasma protein [6] = test: Plasma protein binding (rapid equilibrium dialysis), human; assay type: in vitro ADME; conditions: Human plasma, 5 μM compound, 4 hours
Description: (§3) Equilibrium dialysis is an accurate and reliable method for determining protein binding affinities to chemical or biological substances of low molecular weight. The Rapid Equilibrium Dialysis (RED) plate is specifically designed and extensively validated for plasma protein binding assays. It is also designed for minimal non-specific binding (Thermo Fisher).
(§4) • Phosphate buffered saline (PBS) pH 7.4 was prepared using PBS tablets as per the manufacturer's instructions. • Compound and marker stocks were prepared at 10 mM in DMSO and further diluted to 100× the assay concentration in DMSO. • Plasma was thawed on the day of the assay and centrifuged. The supernatant was transferred to a fresh vessel and the pH adjusted to pH 7.4 using lactic acid or sodium hydroxide.
(§5) Pre-prepared 100× assay compound stocks were spiked 1:100 into pH adjusted plasma. 200 μL of spiked plasma was added to the red compartment of the rapid equilibrium dialysis (RED) device for each replicate. 350 μL of PBS was added to the buffer compartment. The plate was sealed with a breathable lid and shaken on an orbital shaker in a 37° C. incubator, 5% CO2 for 4 hours.
(§6) Standard final incubation conditions were 5 μM compound in plasma containing 1% (v/v) DMSO.
(§7) A sample of the plasma/compound mixture was taken, mixed with an equal volume of PBS and quenched 1:3 with ice-cold acetonitrile containing internal standard. Methanol was also added to matrix match with calibration curve samples. This was the t=0 sample.
(§8) Post-incubation, plasma and buffer were sampled from their respective RED device compartments into separate tubes containing an equal volume of the alternate matrix for each replicate. Samples were quenched 1:3 with ice-cold acetonitrile containing internal standard. Methanol was also added to matrix match with calibration curve samples.
Calibration curves were prepared in methanol and spiked such that the matrix was equivalent to the assay samples.
Quenched samples were mixed thoroughly and protein precipitated at −20° C. for a minimum of 12 hours. Samples were then centrifuged at 4° C. Supernatants were transferred to a fresh 96 well plate for analysis.
Positive control markers were included.
(§9) Fraction unbound, percent bound and percent recovery were the standard assay parameters reported. They were calculated using the following equations: […]
An example compound of formula (I) was tested in this assay. Reference Example 2 (RE2) (which corresponds to Example 49 in WO2020/222011 (Sitryx Therapeutics, 2020)) was used as a comparator compound.

plasma protein [7] = test: Plasma protein binding (rapid equilibrium dialysis), mouse; assay type: in vitro ADME; conditions: 5 μM compound, 4 hours
Description: as §3, §4, §5, §6, §7, §8
Calibration curves were prepared in methanol and spiked such that the matrix was equivalent to the assay samples. […]
as §9

[8] = THP-1, differentiated THP-1 cells, LPS 24 hr then Nigericin 1 hour, read-out: IL-6 (IC50)
[9] = THP-1, differentiated THP-1 cells, LPS 24 hr then Nigericin 1 hour, read-out: IL-1β (IC50)
[10] = U2OS, +GSH, normalised to dimethyl fumarate high control, read-out: NRF2 activation Emax, +GSH
[11] = U2OS, −GSH, normalised to dimethyl fumarate high control, read-out: NRF2 activation Emax, −GSH
[12] = +GSH, U2OS PathHunter cells, 6 hours, read-out: NRF2 activation EC50, +GSH
[13] = −GSH, U2OS PathHunter cells, 6 hours, read-out: NRF2 activation EC50, −GSH
[14] = THP-1, differentiated THP-1 cells, footnote a: data from repeated experiments, read-out: IL-1β (IC50), data from repeated experiments
[15] = U2OS, 6 h, read-out: NRF2 activation EC50, +GSH
[16] = U2OS, 6 h, read-out: NRF2 activation EC50, −GSH
[17] = U2OS, read-out: NRF2 activation Emax, +GSH
[18] = U2OS, read-out: NRF2 activation Emax, −GSH

| Structure (SMILES) | IC50 (IL-6; [8]) [µM] | half-life at 10 μM [1] [min] | Clint [2] [μL min^−1 10^−6 cells] | IC50 (IL-1β; [9]) [µM] | Emax [3, 10] [%] | Emax [3, 11] [%] | EC50 [3, 12] [µM] | EC50 [3, 13] [µM] | half-life at 10 μM [4] [min] | Clint [5] [μL min^−1 10^−6 cells] | IC50 (IL-1β; [14]) [µM] | IC50 (IL-6; THP-1, read-out: IL-6 (IC50)) [µM] | IC50 (IL-1β; THP-1, read-out: IL-1β (IC50)) [µM] | EC50 [3, 15] [µM] | EC50 [3, 16] [µM] | Emax [3, 17] [%] | Emax [3, 18] [%] | Binding (%) (plasma protein [6]) | Binding (%) (plasma protein [7]) | T½ ([5]; 10 μM) [min] |
| --- | --- | --- | --- | --- | --- | --- | --- | --- | --- | --- | --- | --- | --- | --- | --- | --- | --- | --- | --- | --- |
| C=C(CC(=O)N[C@@H](C)c1ccc(C(F)(F)F)cc1)C(=O)OCCN1CCOCC1 [Example 29] | 6.7 | 13 | 130 | 10.3 | 22 | 86 | > 100 | 22.7 | 38 | 39 | – | – | – | – | – | – | – | – | – | – |
| C=C(CC(=O)NC1(c2ccc(C(F)(F)F)cc2)CCC1)C(=O)O [Example 5, 2-methylene-4-oxo-4-((1-(4-(trifluoromethyl)phenyl)cyclobutyl)amino)butanoic acid] | > 56.2 | 450 | 3 | 3.7 | 0 | 17 | > 100 | > 100 | > 460 | <3 | 5.6 | – | – | – | – | – | – | – | – | – |
| C=C(CC(=O)N[C@@H](C)c1ccc(C(F)(F)F)cn1)C(=O)OCCO [Example 34, 2-hydroxyethyl (S)-2-methylene-4-oxo-4-((1-(5-(trifluoromethyl)pyridin-2-yl)ethyl)amino)butanoate] | 25.8 | 71 | 24 | 14.8 | 16 | 81 | > 100 | 5.7 | 137 | 11 | – | – | – | – | – | – | – | – | – | – |
| C=C(CC(=O)N[C@@H](C)c1ccc(C(F)(F)F)cc1)c1nnn[nH]1 [Example 57, (S)-3-(1H-tetrazol-5-yl)-N-(1-(4-(trifluoromethyl)phenyl)ethyl)but-3-enamide] | > 10 | > 460 | <3 | 1.9 | 48.5 | 55 | > 100 | 46.8 | > 460 | <3 | – | – | – | – | – | – | – | – | – | – |
| C=C(CC(=O)N[C@@H](C)c1ccc(C(F)(F)F)cc1)C(=O)OC1CCN(C)CC1 [Example 24, 1-methylpiperidin-4-yl (S)-2-methylene-4-oxo-4-((1-(4-(trifluoromethyl)phenyl)ethyl)amino)butanoate] | 4 | 8 | 199 | 4.7 | 30 | 78 | > 100 | 9.05 | 65 | 23 | – | – | – | – | – | – | – | – | – | – |
| C=C(CC(=O)N[C@@H](C)c1ccc(C(F)(F)F)cn1)C(=O)OC1CN(S(C)(=O)=O)C1 [Example 37, 1-(methylsulfonyl)azetidin-3-yl (S)-2-methylene-4-oxo-4-((1-(5-(trifluoromethyl)pyridin-2-yl)ethyl)amino)butanoate] | 7.29 | 12 | 104 | 1.7 | 11 | 90 | > 100 | 15.8 | 25 | 50 | – | – | – | – | – | – | – | – | – | – |
| C=C(CC(=O)N[C@@H](C)c1ccc(C(F)(F)F)cn1)C(=O)OC1CCN(S(C)(=O)=O)CC1 [Example 31, 1-(methylsulfonyl)piperidin-4-yl (S)-2-methylene-4-oxo-4-((1-(5-(trifluoromethyl)pyridin-2-yl)ethyl)amino)butanoate] | – | 35 | 34 | – | – | – | – | – | 138 | 11 | – | 13.3 | 2.4 | > 100 | 43.3 | 27 | 82 | – | – | – |
| C=C(CC(=O)NC1(c2ccc(C(F)(F)F)cc2)CCC1)C(=O)OC1CCN(S(C)(=O)=O)CC1 [Example 9, 1-(methylsulfonyl)piperidin-4-yl 2-methylene-4-oxo-4-((1-(4-(trifluoromethyl)phenyl)cyclobutyl)amino)butanoate] | 7.27 | 3.5 | 619 | 8.2 | 55 | 109 | > 100 | 19.2 | 10 | 116 | – | – | – | – | – | – | – | – | – | – |
| C=C(CC(=O)NC(C)(C)c1ccc(C(F)(F)F)cc1)C(=O)O [Example 4, 2-methylene-4-oxo-4-((2-(4-(trifluoromethyl)phenyl)propan-2-yl)amino)butanoic acid] | > 63.1 | > 460 | 3 | 3.4 | 0 | 1 | > 100 | > 100 | 390 | <3 | 3.9 | – | – | – | – | – | – | 89.2 | 83.7 | >460 |
| C/C=C(\CC(=O)N[C@@H](C)c1ccc(C(F)(F)F)cc1)C(=O)O [Example 42, (S,E)-2-(2-oxo-2-((1-(4-(trifluoromethyl)phenyl)ethyl)amino)ethyl)but-2-enoic acid] | – | 323 | 3 | – | – | – | – | – | > 460 | <3 | – | > 68.1 | 2.3 | > 100 | > 100 | 3 | 8 | – | – | – |
| C=C(CC(=O)N[C@@H](C)c1ccc(C(F)(F)F)cc1)C(=O)OC1CCN(S(C)(=O)=O)CC1 [Example 22, 1-(methylsulfonyl)piperidin-4-yl (S)-2-methylene-4-oxo-4-((1-(4-(trifluoromethyl)phenyl)ethyl)amino)butanoate] | 3.6 | 13 | 99 | 7.1 | 8 | 3 | > 100 | > 100 | 37 | 49 | – | – | – | – | – | – | – | – | – | – |
| C=C(CC(=O)OCCCCCCCC)C(=O)OCC(=O)O [RE2, reference compound] | – | – | – | – | – | – | – | – | – | – | – | – | – | – | – | – | – | >99 | >99 | – |
| C=C(CC(=O)N[C@@H](C)c1ccc(C(F)(F)F)cc1)C(=O)OC1CS(=O)(=O)C1 [Example 27, 1,1-dioxidothietan-3-yl (S)-2-methylene-4-oxo-4-((1-(4-(trifluoromethyl)phenyl)ethyl)amino)butanoate] | 1.4 | 6 | 215 | 3.3 | 10 | 84 | > 100 | 6.3 | 12 | 126 | – | – | – | – | – | – | – | – | – | – |
